≈ marks a conversion by molar mass, not a printed value. Where two headings read alike, the source gives them in different places.
Columns and labels:
[1] = biological target: T1, DOXP reductoisomerase of Escherichia coli (UniProt P56139); assay: inhibition of recombinant DOXP reductoisomerase (NADPH oxidation); type: biochemical; conditions: 1 mM DOXP, 0,3 mM NADPH, pH 7,5; read-out: IC50(nM) of DOXP reductoisomerase from Helicobacter pilori
T1 sequence (P56139 1-368): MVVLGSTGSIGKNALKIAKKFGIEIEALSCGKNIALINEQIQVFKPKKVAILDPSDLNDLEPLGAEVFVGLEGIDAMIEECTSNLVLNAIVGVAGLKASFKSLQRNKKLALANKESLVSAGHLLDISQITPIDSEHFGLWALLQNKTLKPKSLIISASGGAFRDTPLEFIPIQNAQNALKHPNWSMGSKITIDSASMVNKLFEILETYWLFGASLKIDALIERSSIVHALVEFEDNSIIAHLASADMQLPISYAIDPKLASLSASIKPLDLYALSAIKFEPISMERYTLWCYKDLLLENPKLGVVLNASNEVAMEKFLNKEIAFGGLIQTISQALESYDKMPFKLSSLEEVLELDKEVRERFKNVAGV

Pseudomonas aeruginosa = assay: antibacterial activity, minimum inhibition concentration in liquid culture; type: cell-based; conditions: read-out: MIC(nM) of bacteria culture (Pseudomonas aeruginosa)
Protocol: A dilution series comprising the concentrations 500, 100, 50, 10 and 0 μmol 1^−1 of the individual compounds in LB medium is introduced into 5 culture microtubes in a volume of 0,5 ml. The tubes were inoculated with 10 μl of an overnight culture of E. coli K12 and shaken overnight at 37° C. The growth of the bacteria was assessed on the basis of the turbidity of the medium. The minimum concentration causing inhibition of bacterial growth was determined (minimum inhibition concentration MIC)
The antibacterial activity of P. aeruginosa was determined in the same manner.

Abutilon theophrasti [2] = assay: herbicidal activity, Erde Vorauflauf; type: in vivo
Protocol: (§1) The determination of herbicidal activity is performed according to standard procedure. Again the compounds listed on page 9 are tested.

Zea mays [3] = assay: herbicidal activity, Erde Vorauflauf; type: in vivo
Protocol: as §1

Setaria viridis [4] = assay: herbicidal activity, Erde Vorauflauf; type: in vivo
Protocol: as §1

Galium aperine [5] = assay: herbicidal activity, Erde Vorauflauf; type: in vivo
Protocol: as §1

Cyperus esculentus [6] = assay: herbicidal activity, Erde Vorauflauf; type: in vivo
Protocol: as §1

Xanthium strumarium [7] = assay: herbicidal activity, Erde Vorauflauf; type: in vivo
Protocol: as §1

Sinapis arvensis [8] = assay: herbicidal activity, Erde Vorauflauf; type: in vivo; conditions: Mutarda arvensis
Protocol: as §1

Beta vulgaris [9] = assay: herbicidal activity, Erde Vorauflauf; type: in vivo
Protocol: as §1

Alopecurus myosuroides [10] = assay: herbicidal activity, Erde Vorauflauf; type: in vivo
Protocol: as §1

Avena fatua [11] = assay: herbicidal activity, Erde Vorauflauf; type: in vivo
Protocol: as §1

Amaranthus retroflexus [12] = assay: herbicidal activity, Erde Vorauflauf; type: in vivo
Protocol: as §1

Echinochloa = assay: herbicidal activity, Hydro Vorauflauf; type: in vivo
Protocol: as §1

Reis = assay: herbicidal activity, Hydro Vorauflauf; type: in vivo
Protocol: as §1

Lepidium = assay: herbicidal activity, Hydro Vorauflauf; type: in vivo
Protocol: as §1

Solanum = assay: herbicidal activity, Hydro Vorauflauf; type: in vivo
Protocol: as §1

Abutilon theophrasti [13] = assay: herbicidal activity, Erde Nachauflauf; type: in vivo
Protocol: as §1

Zea mays [14] = assay: herbicidal activity, Erde Nachauflauf; type: in vivo
Protocol: as §1

Setaria viridis [15] = assay: herbicidal activity, Erde Nachauflauf; type: in vivo
Protocol: as §1

Galium aperine [16] = assay: herbicidal activity, Erde Nachauflauf; type: in vivo
Protocol: as §1

Cyperus esculentus [17] = assay: herbicidal activity, Erde Nachauflauf; type: in vivo
Protocol: as §1

Xanthium strumarium [18] = assay: herbicidal activity, Erde Nachauflauf; type: in vivo
Protocol: as §1

Sinapis arvensis [19] = assay: herbicidal activity, Erde Nachauflauf; type: in vivo; conditions: Mutarda arvensis
Protocol: as §1

Beta vulgaris [20] = assay: herbicidal activity, Erde Nachauflauf; type: in vivo
Protocol: as §1

Alopecurus myosuroides [21] = assay: herbicidal activity, Erde Nachauflauf; type: in vivo
Protocol: as §1

Avena fatua [22] = assay: herbicidal activity, Erde Nachauflauf; type: in vivo
Protocol: as §1

Amaranthus retroflexus [23] = assay: herbicidal activity, Erde Nachauflauf; type: in vivo
Protocol: as §1

Plasmodium falciparum = assay: antimalaria activity on in vitro cultures, [3H]-hypoxanthine incorporation; type: cell-based; conditions: 72 h, inhibition of [3H]-hypoxanthine incorporation, 48 + 24 hours, read-out: IC50(nM) of malaria culture (Plasmodium falciparum)
Protocol: The antimalaria activity of the compounds listed on page 9 was determined on in vitro cultures of the malaria pathogen Plasmodium falciparum. The depressions of a 96-well microtitre plate were charged with in each case 200 μl of an asynchroneous Plasmodium falciparum culture at a parasitaemia of 0,4% and haematokrit of 2%. A serial dilution series of the compounds in triple steps between concentrations of 100 to 0,14 μmol 1^−1 was then prepared. The plates were incubated at 37° C., 3% CO2 and 5% O2 over a period of 48 hours. 30 μl medium supplemented with 27 μCi ml^−1 [^3H]-hypoxanthine were then added to each well. After incubation for 24 hours the parasites were harvested by filtration on a glass fibre filter and the radioactivity which had been incorporated was measured. The inhibition of the growth of parasites was measured as the percentage inhibition of the incorporation of tritium. Inhibition of the growth of the parasites has been determined as percentage inhibition of incorporation of tritium based on a comparison without the substance. The half-maximum inhibitory concentration (IC50) of the substance was determined by extrapolation of the values.

`CC1CON(CCCP(=O)(O)O)C1=O` (stereo not shown) [Compound 5] showed an IC50 [1] of 100 nM, an MIC (Pseudomonas aeruginosa) of 2200 nM (≈ 0.491 µg/mL) and a pest or weed control at 2000 g/ha (Abutilon theophrasti [2]; 2000 Gramm/Hektar) of 0%. It also gave a plant injury at 2000 g/ha (Zea mays [3]; 2000 Gramm/Hektar) of 0%, a pest or weed control at 2000 g/ha (Setaria viridis [4]; 2000 Gramm/Hektar) of 0% and a pest or weed control at 2000 g/ha (Galium aperine [5]; 2000 Gramm/Hektar) of 0%. The pest or weed control at 2000 g/ha (Cyperus esculentus [6]; 2000 Gramm/Hektar) was 0%, the pest or weed control at 2000 g/ha (Xanthium strumarium [7]; 2000 Gramm/Hektar) was 0% and the pest or weed control at 2000 g/ha (Sinapis arvensis [8]; 2000 Gramm/Hektar) was 50%. It also gave a plant injury at 2000 g/ha (Beta vulgaris [9]; 2000 Gramm/Hektar) of 30%, a pest or weed control at 2000 g/ha (Alopecurus myosuroides [10]; 2000 Gramm/Hektar) of 60% and a pest or weed control at 2000 g/ha (Avena fatua [11]; 2000 Gramm/Hektar) of 0%. The pest or weed control at 2000 g/ha (Amaranthus retroflexus [12]; 2000 Gramm/Hektar) was 0%, the pest or weed control at 4000 g/ha (Echinochloa; 4000 Gramm/Hektar) was 60% and the pest or weed control at 4000 g/ha (Reis; 4000 Gramm/Hektar) was 40%. It also gave a pest or weed control at 4000 g/ha (Lepidium; 4000 Gramm/Hektar) of 40%, a pest or weed control at 4000 g/ha (Solanum; 4000 Gramm/Hektar) of 0% and a pest or weed control at 2000 g/ha (Abutilon theophrasti [13]; 2000 Gramm/Hektar) of 40%. For the same compound, the plant injury at 2000 g/ha (Zea mays [14]; 2000 Gramm/Hektar) was 80%, the pest or weed control at 2000 g/ha (Setaria viridis [15]; 2000 Gramm/Hektar) was 95% and the pest or weed control at 2000 g/ha (Galium aperine [16]; 2000 Gramm/Hektar) was 70%. It also gave a pest or weed control at 2000 g/ha (Cyperus esculentus [17]; 2000 Gramm/Hektar) of 0%, a pest or weed control at 2000 g/ha (Xanthium strumarium [18]; 2000 Gramm/Hektar) of 60% and a pest or weed control at 2000 g/ha (Sinapis arvensis [19]; 2000 Gramm/Hektar) of 90%. The plant injury at 2000 g/ha (Beta vulgaris [20]; 2000 Gramm/Hektar) was 40%, the pest or weed control at 2000 g/ha (Alopecurus myosuroides [21]; 2000 Gramm/Hektar) was 80% and the pest or weed control at 2000 g/ha (Avena fatua [22]; 2000 Gramm/Hektar) was 40%. For the same compound, the pest or weed control at 2000 g/ha (Amaranthus retroflexus [23]; 2000 Gramm/Hektar) was 30% and the IC50 (Plasmodium falciparum) was 1200 nM.
Compound `CC1(C)CON(C(=O)CP(C)(=O)O)C1=O` [Compound 1] has an IC50 [1] of 22 nM, an MIC (Pseudomonas aeruginosa; LB medium, overnight at 37° C., turbidity) of 500 nM (≈ 0.118 µg/mL) and a pest or weed control at 500 g/ha (Abutilon theophrasti [2]; 500 Gramm/Hektar) of 0%. The plant injury at 500 g/ha (Zea mays [3]; 500 Gramm/Hektar) was 0%, the pest or weed control at 500 g/ha (Setaria viridis [4]; 500 Gramm/Hektar) was 0% and the pest or weed control at 500 g/ha (Galium aperine [5]; 500 Gramm/Hektar) was 0%. For the same compound, the pest or weed control at 500 g/ha (Cyperus esculentus [6]; 500 Gramm/Hektar) was 0%, the pest or weed control at 500 g/ha (Xanthium strumarium [7]; 500 Gramm/Hektar) was 0% and the pest or weed control at 500 g/ha (Sinapis arvensis [8]; 500 Gramm/Hektar) was 40%. For the same compound, the plant injury at 500 g/ha (Beta vulgaris [9]; 500 Gramm/Hektar) was 30%, the pest or weed control at 500 g/ha (Alopecurus myosuroides [10]; 500 Gramm/Hektar) was 50% and the pest or weed control at 500 g/ha (Avena fatua [11]; 500 Gramm/Hektar) was 0%. For the same compound, the pest or weed control at 500 g/ha (Amaranthus retroflexus [12]; 500 Gramm/Hektar) was 0%, the pest or weed control at 1000 g/ha (Echinochloa; 1000 Gramm/Hektar) was 80% and the pest or weed control at 1000 g/ha (Reis; 1000 Gramm/Hektar) was 50%. It also gave a pest or weed control at 1000 g/ha (Lepidium; 1000 Gramm/Hektar) of 40%, a pest or weed control at 1000 g/ha (Solanum; 1000 Gramm/Hektar) of 0% and a pest or weed control at 500 g/ha (Abutilon theophrasti [13]; 500 Gramm/Hektar) of 40%. The plant injury at 500 g/ha (Zea mays [14]; 500 Gramm/Hektar) was 80%, the pest or weed control at 500 g/ha (Setaria viridis [15]; 500 Gramm/Hektar) was 95% and the pest or weed control at 500 g/ha (Galium aperine [16]; 500 Gramm/Hektar) was 90%. The pest or weed control at 500 g/ha (Cyperus esculentus [17]; 500 Gramm/Hektar) was 0%, the pest or weed control at 500 g/ha (Xanthium strumarium [18]; 500 Gramm/Hektar) was 60% and the pest or weed control at 500 g/ha (Sinapis arvensis [19]; 500 Gramm/Hektar) was 95%. For the same compound, the plant injury at 500 g/ha (Beta vulgaris [20]; 500 Gramm/Hektar) was 70%, the pest or weed control at 500 g/ha (Alopecurus myosuroides [21]; 500 Gramm/Hektar) was 50% and the pest or weed control at 500 g/ha (Avena fatua [22]; 500 Gramm/Hektar) was 50%. For the same compound, the pest or weed control at 500 g/ha (Amaranthus retroflexus [23]; 500 Gramm/Hektar) was 0% and the IC50 (Plasmodium falciparum) was 800 nM.

— US6638957B1, “Use of compounds with a nitrogen-oxygen heterocycle” (Jomaa Pharmaka GmbH, priority 1999, dated 2003)
